Source: ChEMBL document CHEMBL1201862, “PubChem BioAssay data set” (2004)
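Protocol summary: plate cells (96-well), add compound at 5 concentrations, incubate 48 h, interpolate endpoints linearly. GI50: concentration for 50% inhibition of growth.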 Activity calls are given as the source filed them. Rule as the data show it: active = GI50 up to about 1.1 µM and inactive = higher.

How the values were obtained:
Assay in all cases: NCI anticancer screen, dose series, 48 h
BT-549 = test system: BT-549
HOP-62 = test system: HOP-62
CCRF-CEM = test system: CCRF-CEM
SR = test system: SR
HL-60 = test system: HL-60
EKVX = test system: EKVX
HCT-15 = test system: HCT-15
NCI/ADR-RES = test system: NCI/ADR-RES
IGROV-1 = test system: IGROV-1
U-251 = test system: U-251
SW-620 = test system: SW-620
OVCAR-3 = test system: OVCAR-3
M14 = test system: M14
UO-31 = test system: UO-31
CAKI-1 = test system: CAKI-1
OVCAR-5 = test system: OVCAR-5
LOX IMVI = test system: LOX IMVI
T47D = test system: T47D
SF-268 = test system: SF-268
MDA-MB-435 = test system: MDA-MB-435

Compound | GI50 (BT-549) | GI50 (HOP-62) | GI50 (CCRF-CEM) | GI50 (SR) | GI50 (HL-60) | GI50 (EKVX) | GI50 (HCT-15) [µM] | GI50 (NCI/ADR-RES) | GI50 (IGROV-1) | GI50 (U-251) | GI50 (SW-620) | GI50 (OVCAR-3) | GI50 (M14) | GI50 (UO-31) | GI50 (CAKI-1) | GI50 (OVCAR-5) | GI50 (LOX IMVI) | GI50 (T47D) | GI50 (SF-268) | GI50 (MDA-MB-435)
COC(=O)/C=C(\C)CC(O)/C=C(\C)CCC=C(C)C (stereo unspecified) | 31.2 µM (inactive) | > 100 µM (inactive) | 30.8 µM (inactive) | 23 µM (inactive) | 17.4 µM (inactive) | 46.1 µM (inactive) | 58.6 | 16.2 µM (inactive) | > 100 µM (inactive) | 42.7 µM (inactive) | 60.8 µM (inactive) | 22.7 µM (inactive) | 38.5 µM (inactive) | 33.5 µM (inactive) | 92.7 µM (inactive) | > 100 µM (inactive) | 29.4 µM (inactive) | – | – | –
C=C1C(=O)OC2/C=C(/CO)C3(O)CC(O)C(C)(CC(OC(=O)/C(C)=C/C)C12)O3 (stereo unspecified) | 4.52 µM (inactive) | 49.3 µM (inactive) | 2.1 µM (inactive) | 4.57 µM (inactive) | 6.21 µM (inactive) | 18.8 µM (inactive) | 7.57 | – | 17.2 µM (inactive) | 18.5 µM (inactive) | 3.33 µM (inactive) | 10.2 µM (inactive) | 17.7 µM (inactive) | 20.4 µM (inactive) | 4.33 µM (inactive) | 21 µM (inactive) | 11 µM (inactive) | 10.9 µM (inactive) | 11 µM (inactive) | 9.42 µM (inactive)
CCN(CC(=O)O)CC(=O)O | > 100 µM (inactive) | > 100 µM (inactive) | > 100 µM (inactive) | – | – | > 100 µM (inactive) | > 100 | > 100 µM (inactive) | > 100 µM (inactive) | > 100 µM (inactive) | > 100 µM (inactive) | > 100 µM (inactive) | > 100 µM (inactive) | > 100 µM (inactive) | > 100 µM (inactive) | > 100 µM (inactive) | > 100 µM (inactive) | > 100 µM (inactive) | > 100 µM (inactive) | > 100 µM (inactive)
CC(=O)Nc1ccc(S(=O)(=O)Nc2nc(-c3ccc(Cl)cc3)cc(N3N=C(c4ccc(Br)cc4)CC3c3ccccc3)n2)cc1 (stereo unspecified) | 17.8 µM (inactive) | 16.3 µM (inactive) | 26.1 µM (inactive) | 16.2 µM (inactive) | 14.2 µM (inactive) | 13.6 µM (inactive) | 15.7 | 17.1 µM (inactive) | 11.8 µM (inactive) | 16.8 µM (inactive) | 20.4 µM (inactive) | 2.06 µM (inactive) | 18.1 µM (inactive) | 15.4 µM (inactive) | – | 14.3 µM (inactive) | 15.9 µM (inactive) | – | – | 7.45 µM (inactive)
CCCCn1c(O)nc2c(N)ncnc21 | > 100 µM (inactive) | > 100 µM (inactive) | > 100 µM (inactive) | – | > 100 µM (inactive) | 92.9 µM (inactive) | > 100 | > 100 µM (inactive) | > 100 µM (inactive) | > 100 µM (inactive) | > 100 µM (inactive) | > 100 µM (inactive) | > 100 µM (inactive) | > 100 µM (inactive) | – | > 100 µM (inactive) | > 100 µM (inactive) | – | > 100 µM (inactive) | > 100 µM (inactive)
Cc1ccc2c(c1)CC1(C2=O)[C@H](c2ccccc2)C2C(=O)c3ccc(C)cc3C2[C@H]1c1ccccc1 (stereo partly specified) | > 100 µM (inactive) | > 100 µM (inactive) | > 100 µM (inactive) | 36.9 µM (inactive) | 43.1 µM (inactive) | > 100 µM (inactive) | > 100 | – | > 100 µM (inactive) | > 100 µM (inactive) | > 100 µM (inactive) | > 100 µM (inactive) | > 100 µM (inactive) | > 100 µM (inactive) | > 100 µM (inactive) | > 100 µM (inactive) | > 100 µM (inactive) | > 100 µM (inactive) | > 100 µM (inactive) | > 100 µM (inactive)
Cc1cccc(NC2=NCCO2)c1Cl | – | > 100 µM (inactive) | > 100 µM (inactive) | > 100 µM (inactive) | > 100 µM (inactive) | > 100 µM (inactive) | > 100 | > 100 µM (inactive) | > 100 µM (inactive) | > 100 µM (inactive) | > 100 µM (inactive) | – | > 100 µM (inactive) | > 100 µM (inactive) | – | > 100 µM (inactive) | – | > 100 µM (inactive) | > 100 µM (inactive) | > 100 µM (inactive)
Cn1c2c(c3ccccc31)CCN1OCC=C[C@@H](C(=O)O)[C@@H]21 | – | > 100 µM (inactive) | – | > 100 µM (inactive) | > 100 µM (inactive) | > 100 µM (inactive) | > 100 | > 100 µM (inactive) | > 100 µM (inactive) | > 100 µM (inactive) | > 100 µM (inactive) | > 100 µM (inactive) | > 100 µM (inactive) | 51.3 µM (inactive) | > 100 µM (inactive) | > 100 µM (inactive) | > 100 µM (inactive) | > 100 µM (inactive) | > 100 µM (inactive) | > 100 µM (inactive)
COc1cc(OC)c2c(=O)c3cccc(C)c3n(C)c2c1 | > 100 µM (inactive) | > 100 µM (inactive) | 36.3 µM (inactive) | 37 µM (inactive) | 30.5 µM (inactive) | > 100 µM (inactive) | > 100 | 64.1 µM (inactive) | > 100 µM (inactive) | 84.3 µM (inactive) | > 100 µM (inactive) | 74.8 µM (inactive) | 44 µM (inactive) | – | > 100 µM (inactive) | > 100 µM (inactive) | 55.7 µM (inactive) | – | 72.6 µM (inactive) | 50.7 µM (inactive)
CC[C@]1(O)C[C@H]2CN(CCc3c([nH]c4ccccc34)[C@@](C(=O)OC)(c3cc4c(cc3OC)N(C)[C@H]3[C@@](O)(C(=O)OC)[C@H](OC(C)=O)[C@]5(CC)C=CCN6CC[C@]43[C@@H]65)C2)C1 | 0.00126 µM (active) | 0.000832 µM (active) | 0.000641 µM (active) | 0.000425 µM (active) | 0.00042 µM (active) | 0.0259 µM (active) | 0.0241 | 0.115 µM (active) | 0.00129 µM (active) | 0.000715 µM (active) | 0.000564 µM (active) | 0.00038 µM (active) | 0.000762 µM (active) | 0.143 µM (active) | 0.00706 µM (active) | – | 0.000538 µM (active) | – | 0.000986 µM (active) | 0.000386 µM (active)
NC(=O)c1ncn(C2C=CC(CP(=O)(O)O)C2)c1N (stereo unspecified) | – | > 100 µM (inactive) | > 100 µM (inactive) | > 100 µM (inactive) | > 100 µM (inactive) | > 100 µM (inactive) | > 100 | > 100 µM (inactive) | > 100 µM (inactive) | > 100 µM (inactive) | > 100 µM (inactive) | > 100 µM (inactive) | > 100 µM (inactive) | > 100 µM (inactive) | > 100 µM (inactive) | > 100 µM (inactive) | > 100 µM (inactive) | > 100 µM (inactive) | > 100 µM (inactive) | > 100 µM (inactive)
COC(=O)C1CCCN1C(=O)C(Cc1cn(S(=O)(=O)c2ccc(C)cc2)cn1)NC(=O)OC(C)(C)C (stereo unspecified) | > 100 µM (inactive) | > 100 µM (inactive) | > 100 µM (inactive) | > 100 µM (inactive) | > 100 µM (inactive) | > 100 µM (inactive) | > 100 | – | > 100 µM (inactive) | > 100 µM (inactive) | > 100 µM (inactive) | – | > 100 µM (inactive) | > 100 µM (inactive) | – | > 100 µM (inactive) | – | – | – | –
Oc1ccc2ccccc2c1CCc1c(O)ccc2ccccc12 | – | 13.5 µM (inactive) | 11.9 µM (inactive) | 12 µM (inactive) | 22.8 µM (inactive) | 13.4 µM (inactive) | 14.4 | 13.6 µM (inactive) | – | 13.3 µM (inactive) | 14.2 µM (inactive) | 4.42 µM (inactive) | 15.5 µM (inactive) | – | 7.45 µM (inactive) | 14.1 µM (inactive) | 14.3 µM (inactive) | 2.44 µM (inactive) | 11 µM (inactive) | 12.8 µM (inactive)
O=C1CCCCCCCCCCC1CN(Cc1ccccc1)Cc1ccccc1 (stereo unspecified) | 50.7 µM (inactive) | > 100 µM (inactive) | 19.9 µM (inactive) | 35.5 µM (inactive) | 23.9 µM (inactive) | 36.1 µM (inactive) | 56.5 | – | > 100 µM (inactive) | 18.8 µM (inactive) | 45.6 µM (inactive) | 44.5 µM (inactive) | 48 µM (inactive) | 48.5 µM (inactive) | – | > 100 µM (inactive) | 22.9 µM (inactive) | 19.1 µM (inactive) | 40 µM (inactive) | 37.1 µM (inactive)
NC1CCCCC1.O=C(CP(=O)(O)O)NC(CC(=O)OCc1ccccc1)C(=O)OCc1ccccc1 (stereo unspecified) | – | > 100 µM (inactive) | > 100 µM (inactive) | > 100 µM (inactive) | > 100 µM (inactive) | > 100 µM (inactive) | > 100 | > 100 µM (inactive) | > 100 µM (inactive) | > 100 µM (inactive) | > 100 µM (inactive) | > 100 µM (inactive) | > 100 µM (inactive) | > 100 µM (inactive) | > 100 µM (inactive) | > 100 µM (inactive) | – | > 100 µM (inactive) | > 100 µM (inactive) | > 100 µM (inactive)
Nc1nc(-c2ccccc2)c(Cl)c(-c2cc(Cl)ccc2O)n1 | 20.4 µM (inactive) | 14.9 µM (inactive) | > 96.2 µM (inactive) | > 100 µM (inactive) | > 42.9 µM (inactive) | 28.1 µM (inactive) | 18.4 | – | 19.4 µM (inactive) | 15.2 µM (inactive) | 44.3 µM (inactive) | 16.1 µM (inactive) | > 100 µM (inactive) | 16 µM (inactive) | 20.5 µM (inactive) | > 60 µM (inactive) | 21.2 µM (inactive) | 3.15 µM (inactive) | 18.3 µM (inactive) | > 100 µM (inactive)
